According to patent US20260226068A1, “IMIDAZOTRIAZINE IL-17A MODULATORS AND USES THEREOF” (DICE ALPHA, INC., priority 2023, published 2026):

Columns and labels:
IL-17A/F = biological target: T1, IL-17A/F (Homo sapiens, UniProt Q16552+Q96PD4); assay: IL-17A/F HEK-Blue cell assay (SEAP reporter); format: cell-based; conditions: HEK-Blue IL-17A reporter cells, IL17A/F 5 ng/mL, 20 hours, SEAP read at A630; read-out: HEK-Blue IL17AF (IC50 for IL-17A/F inhibition)
T1 construct: purchased R&D Systems
T1 sequence (Q16552 24-155): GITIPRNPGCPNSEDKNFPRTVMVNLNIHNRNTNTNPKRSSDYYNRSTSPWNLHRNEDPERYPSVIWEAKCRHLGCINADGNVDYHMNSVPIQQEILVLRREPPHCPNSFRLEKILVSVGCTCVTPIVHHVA
T1 sequence (Q96PD4 31-163): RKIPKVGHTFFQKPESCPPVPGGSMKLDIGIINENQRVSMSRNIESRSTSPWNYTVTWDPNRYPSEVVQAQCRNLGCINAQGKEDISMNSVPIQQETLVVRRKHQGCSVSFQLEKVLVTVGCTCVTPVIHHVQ

IL-17A/A = biological target: T2, IL-17A/A (Homo sapiens, UniProt Q16552); assay: IL-17A/A HEK-Blue cell assay (SEAP reporter); format: cell-based; conditions: HEK-Blue IL-17A reporter cells, IL17A/A 5 ng/mL, 20 hours, SEAP read at A630; read-out: HEK-Blue IL17AA (IC50 for IL-17A/A inhibition)
T2 construct: purchased Genscript Z03228
T2 sequence (Q16552 24-155): T1 sequence (Q16552 24-155)

SMILES: CCn1nccc1C(=O)N[C@H](c1cn2nc(C[C@H]3C[C@@H](C(F)(F)F)CNC3=O)c([C@H](C)N3CCOCC3)nc2n1)C1CCC(F)(F)CC1 (single isomer, unassigned) [Compound 381]
- IC50 (IL-17A/F): > 1 µM
- IC50 (IL-17A/A): 0.1 to 1 µM

SMILES: CCn1nccc1C(=O)N[C@H](c1cn2nc(C[C@H]3C[C@@H](C(F)(F)F)CNC3=O)c([C@H]3CN(C)CCO3)nc2n1)C1CCC(F)(F)CC1 (single isomer, unassigned) [Compound 382]
- IC50 (IL-17A/F): > 1 µM
- IC50 (IL-17A/A): < 0.1 µM

SMILES: CCn1nccc1C(=O)N[C@H](c1cn2nc(C[C@H]3C[C@@H](C(F)(F)F)CNC3=O)c(C3Cc4cncnc4C3)nc2n1)C1CCC(F)(F)CC1 (single isomer, unassigned) [Compound 400]
- IC50 (IL-17A/F): 0.1 to 1 µM
- IC50 (IL-17A/A): < 0.1 µM

SMILES: CCn1nccc1C(=O)N[C@H](c1cn2nc(C[C@H]3C[C@@H](C(F)(F)F)CNC3=O)c([C@@H]3CCCN(C)C3)nc2n1)C1CCC(F)(F)CC1 (single isomer, unassigned) [Compound 401]
- IC50 (IL-17A/F): > 1 µM
- IC50 (IL-17A/A): 0.1 to 1 µM

SMILES: CCn1nccc1C(=O)N[C@H](c1cn2nc(C[C@H]3C[C@@H](C(F)(F)F)CNC3=O)c(C3Cc4cncnc4C3)nc2n1)C1CCC(F)(F)CC1 (single isomer, unassigned) [Compound 402]
- IC50 (IL-17A/F): 0.1 to 1 µM
- IC50 (IL-17A/A): < 0.1 µM

SMILES: CCn1nccc1C(=O)N[C@H](c1cn2nc(C[C@H]3C[C@@H](C(F)(F)F)CNC3=O)c(C3CCCN(C)C3)nc2n1)C1CCC(F)(F)CC1 (single isomer, unassigned) [Compound 403]
- IC50 (IL-17A/F): > 1 µM
- IC50 (IL-17A/A): < 0.1 µM

SMILES: CCn1nccc1C(=O)N[C@H](c1cn2nc(C[C@H]3C[C@@H](C(F)(F)F)CNC3=O)c(C3COCCN3C)nc2n1)C1CCC(F)(F)CC1 (single isomer, unassigned) [Compound 404]
- IC50 (IL-17A/F): > 1 µM
- IC50 (IL-17A/A): 0.1 to 1 µM

SMILES: CCn1nccc1C(=O)N[C@H](c1cn2nc(C[C@H]3C[C@@H](C(F)(F)F)CNC3=O)c(N3CCN(C)[C@H](C4CC4)C3)nc2n1)C1CCC(F)(F)CC1 (single isomer, unassigned) [Compound 431]
- IC50 (IL-17A/F): 0.1 to 1 µM
- IC50 (IL-17A/A): < 0.1 µM

SMILES: CCn1nccc1C(=O)N[C@H](c1cn2nc(C[C@H]3C[C@@H](C(F)(F)F)CNC3=O)c(N3CCN(C)C(C4CC4)C3)nc2n1)C1CCC(F)(F)CC1 (single isomer, unassigned) [Compound 432]
- IC50 (IL-17A/F): 0.1 to 1 µM
- IC50 (IL-17A/A): < 0.1 µM

SMILES: CCn1nccc1C(=O)N[C@H](c1cn2nc(C[C@H]3C[C@@H](C(F)(F)F)CNC3=O)c(C3CCN(C)C3)nc2n1)C1CCC(F)(F)CC1 (single isomer, unassigned) [Compound 439]
- IC50 (IL-17A/F): > 1 µM
- IC50 (IL-17A/A): 0.1 to 1 µM

SMILES: CCn1nccc1C(=O)N[C@H](c1cn2nc(CC3C[C@@H](C(F)(F)F)CNC3=O)c(C3CCOCC3)nc2n1)C1CCC(F)(F)CC1 (stereo in doubt) [Compound 89, N-((1S)-(4,4-difluorocyclohexyl)(2-(((3R,5R)-2-oxo-5-(trifluoromethyl)piperidin-3-yl)methyl)-3-(tetrahydro-2H-pyran-4-yl)imidazo[1,2-b][1,2,4]triazin-6-yl)methyl)-1-ethyl-1H-pyrazole-5-carboxamide]
- IC50 (IL-17A/F): > 1 µM
- IC50 (IL-17A/A): < 0.1 µM

SMILES: CCn1ncnc1C(=O)N[C@H](c1cn2nc(C[C@H]3C[C@@H](C(F)(F)F)CNC3=O)c(C3CCOCC3)nc2n1)C1CCCC(F)(F)C1 (stereo in doubt) [Compound 384, N—((S)—((S)-3,3-difluorocyclohexyl)(2-(((3R,5R)-2-oxo-5-(trifluoromethyl)piperidin-3-yl)methyl)-3-(tetrahydro-2H-pyran-4-yl)imidazo[1,2-b][1,2,4]triazin-6-yl)methyl)-1-ethyl-1H-1,2,4-triazole-5-carboxamide]
- IC50 (IL-17A/F): > 1 µM
- IC50 (IL-17A/A): < 0.1 µM

SMILES: Cn1nccc1C(=O)N[C@H](c1cn2nc(CC3C[C@@H](C(F)(F)F)CNC3=O)cnc2n1)C1CCC(F)(F)CC1 (stereo partly drawn) [Compound 3, N—((S)-(4,4-difluorocyclohexyl)(2-(((5R)-2-oxo-5-(trifluoromethyl)piperidin-3-yl)methyl)imidazo[1,2-b][1,2,4]triazin-6-yl)methyl)-1-methyl-1H-pyrazole-5-carboxamide]
- IC50 (IL-17A/F): > 1 µM
- IC50 (IL-17A/A): 0.1 to 1 µM

SMILES: CC(C)n1nccc1C(=O)N[C@H](c1cn2nc(CC3C[C@@H](C(F)(F)F)CNC3=O)cnc2n1)C1CCC(F)(F)CC1 (stereo partly drawn) [Compound 6, N—((S)-(4,4-difluorocyclohexyl)(2-(((5R)-2-oxo-5-(trifluoromethyl)piperidin-3-yl)methyl)imidazo[1,2-b][1,2,4]triazin-6-yl)methyl)-1-isopropyl-1H-pyrazole-5-carboxamide]
- IC50 (IL-17A/F): > 1 µM
- IC50 (IL-17A/A): < 0.1 µM

SMILES: O=C(N[C@H](c1cn2nc(CC3C[C@@H](C(F)(F)F)CNC3=O)cnc2n1)C1CCC(F)(F)CC1)c1conc1CCF (stereo partly drawn) [Compound 7, N—((S)-(4,4-difluorocyclohexyl)(2-(((5R)-2-oxo-5-(trifluoromethyl)piperidin-3-yl)methyl)imidazo[1,2-b][1,2,4]triazin-6-yl)methyl)-3-(2-fluoroethyl)isoxazole-4-carboxamide]
- IC50 (IL-17A/F): > 1 µM
- IC50 (IL-17A/A): 0.1 to 1 µM

SMILES: CC(C)c1nocc1C(=O)N[C@H](c1cn2nc(CC3C[C@@H](C(F)(F)F)CNC3=O)cnc2n1)C1CCC(F)(F)CC1 (stereo partly drawn) [Compound 8, N—((S)-(4,4-difluorocyclohexyl)(2-(((5R)-2-oxo-5-(trifluoromethyl)piperidin-3-yl)methyl)imidazo[1,2-b][1,2,4]triazin-6-yl)methyl)-3-isopropylisoxazole-4-carboxamide]
- IC50 (IL-17A/F): > 1 µM
- IC50 (IL-17A/A): 0.1 to 1 µM

SMILES: O=C(N[C@H](c1cn2nc(CC3C[C@@H](C(F)(F)F)CNC3=O)cnc2n1)C1CCC(F)(F)CC1)c1conc1C1CC1 (stereo partly drawn) [Compound 9, 3-cyclopropyl-N—((S)-(4,4-difluorocyclohexyl)(2-(((5R)-2-oxo-5-(trifluoromethyl)piperidin-3-yl)methyl)imidazo[1,2-b][1,2,4]triazin-6-yl)methyl)isoxazole-4-carboxamide]
- IC50 (IL-17A/F): > 1 µM
- IC50 (IL-17A/A): < 0.1 µM

SMILES: O=C(N[C@H](c1cn2nc(CC3C[C@@H](C(F)(F)F)CNC3=O)cnc2n1)C1CCC(F)(F)CC1)c1conc1C(F)(F)F (stereo partly drawn) [Compound 10, N—((S)-(4,4-difluorocyclohexyl)(2-(((5R)-2-oxo-5-(trifluoromethyl)piperidin-3-yl)methyl)imidazo[1,2-b][1,2,4]triazin-6-yl)methyl)-3-(trifluoromethyl)isoxazole-4-carboxamide]
- IC50 (IL-17A/F): > 1 µM
- IC50 (IL-17A/A): 0.1 to 1 µM

SMILES: CCc1nonc1C(=O)N[C@H](c1cn2nc(CC3C[C@@H](C(F)(F)F)CNC3=O)cnc2n1)C1CCC(F)(F)CC1 (stereo partly drawn) [Compound 11, N—((S)-(4,4-difluorocyclohexyl)(2-(((5R)-2-oxo-5-(trifluoromethyl)piperidin-3-yl)methyl)imidazo[1,2-b][1,2,4]triazin-6-yl)methyl)-4-ethyl-1,2,5-oxadiazole-3-carboxamide]
- IC50 (IL-17A/F): > 1 µM
- IC50 (IL-17A/A): 0.1 to 1 µM

SMILES: CC(C)c1nonc1C(=O)N[C@H](c1cn2nc(CC3C[C@@H](C(F)(F)F)CNC3=O)cnc2n1)C1CCC(F)(F)CC1 (stereo partly drawn) [Compound 12]
- IC50 (IL-17A/F): > 1 µM
- IC50 (IL-17A/A): < 0.1 µM

SMILES: O=C(N[C@H](c1cn2nc(CC3C[C@@H](C(F)(F)F)CNC3=O)cnc2n1)C1CCC(F)(F)CC1)c1nonc1C1CC1 (stereo partly drawn) [Compound 13, 4-cyclopropyl-N—((S)-(4,4-difluorocyclohexyl)(2-(((5R)-2-oxo-5-(trifluoromethyl)piperidin-3-yl)methyl)imidazo[1,2-b][1,2,4]triazin-6-yl)methyl)-1,2,5-oxadiazole-3-carboxamide]
- IC50 (IL-17A/F): > 1 µM
- IC50 (IL-17A/A): < 0.1 µM
